What was measured:
[1] = test system: smooth muscle cells from aortas of pigs; test: Inhibition of the proliferation of smooth muscle cells (3H-thymidine incorporation); format: cell-based, pig; conditions: porcine aortic smooth muscle cells
Method: Investigation of the inhibition of the proliferation of smooth muscle cells by the compounds according to the invention
To determine the antiproliferative action of the compounds, smooth muscle cells are used which are obtained from aortas of pigs by the media explant technique [R. Ross, J. Cell. Biol. 50, 172, 1971]. The cells are inoculated into suitable culture dishes, as a rule 96-hole plates, and cultured at 37° C. in 5% CO2 for 2-3 days in medium 199 containing 7.5% FCS and 7.5% NCS, 2 mmol L-glutamine and 15 mmol HEPES, pH 7.4. The cells are then synchronised for 2-3 days by withdrawal of serum and then stimulated into growth using serum or other factors. Test compounds are simultaneously added. After 16-20 hours, 1 μCi ^3 H-thymidine is added and after a further 4 hours the incorporation of this substance into the TCA-precipitatable DNA of the cells is determined.
To determine the IC50 values, the active compound concentration is calculated which, on sequential dilution of the active compound, causes half-maximal inhibition of the thymidine incorporation produced by 1% FCS.

angiotensin II receptor = target: T1, angiotensin II receptor (Bos taurus, UniProt P25104); test: Angiotensin II receptor binding in membrane fractions of the adrenal cortex (bovine); conditions: bovine adrenal cortex membranes; 3H-angiotensin II (3-5 nM); 60 min, room temperature, pH 7.2
T1 construct: partially purified membrane fractions of bovine AGC using radioactive angiotensin II; from tissue; host or cells: bovine adrenal gland cortex, partially purified membrane fractions
T1 sequence (P25104 1-359): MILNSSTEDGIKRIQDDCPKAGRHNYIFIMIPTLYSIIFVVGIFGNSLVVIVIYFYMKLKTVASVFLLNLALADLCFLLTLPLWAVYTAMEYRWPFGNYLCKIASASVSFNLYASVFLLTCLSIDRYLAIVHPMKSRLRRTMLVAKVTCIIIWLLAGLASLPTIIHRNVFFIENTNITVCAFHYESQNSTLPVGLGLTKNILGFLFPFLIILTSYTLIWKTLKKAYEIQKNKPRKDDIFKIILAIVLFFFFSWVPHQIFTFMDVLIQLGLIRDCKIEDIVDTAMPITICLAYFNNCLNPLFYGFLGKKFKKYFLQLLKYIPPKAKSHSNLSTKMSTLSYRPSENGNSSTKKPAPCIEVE
Excerpt: Interaction of the compounds according to the invention with the angiotensin II receptor in membrane fractions of the adrenal cortex (bovine)
Adrenal gland cortices from cattle (AGCs), which have been freshly removed and carefully freed from gland medulla, are comminuted in sucrose solution (0.32M) with the aid of an Ultra-Turrax (Janke & Kunkel, Staufen i.B.) to give a coarse membrane homogenate and partially purified to give membrane fractions in two centrifugation steps.
The receptor binding investigations are carried out on partially purified membrane fractions of bovine AGC using radioactive angiotensin II in an assay volume of 0.25 ml, which specifically contains the partially purified membranes (50-80 μg), ^3 H-angiotensin II (3-5 nM), test buffer solution (50 mM Tris, pH 7.2, 5 mM MgCl2) and the substances to be investigated. After an incubation period of 60 min at room temperature, the unbound radioactivity of the samples is separated by means of moistened glass fibre filters (Whatman GF/C) and the bound radioactivity is measured […] in a scintillation cocktail after washing the protein with ice-cold buffer solution (50 mM Tris/HCl, pH 7.4, 5% PEG 6000). The raw data were analysed using computer programs to give Ki or IC50 values (K1 : IC50 values corrected for the radioactivity used; IC50 values: concentration at which the substance to be investigated causes a 50% inhibition of the specific binding of the radioligand).

[2] = test system: contractions of isolated rabbit aorta rings induced by angiotensin II (AII); test: Inhibition of the vascular contraction induced by angiotensin II in isolated rabbit aorta rings in vitro; format: cell-based; conditions: Oryctolagus cuniculus, based on the 3rd = submaximal agonist concentration, read-out: IC50 against contractions induced by AII
Method: Investigation of the inhibition of the contraction induced by agonists
Rabbits of either sex are stunned by a blow to the back of the head and bled out, or in some cases anaesthetised with Nembutal (about 60-80 mg/kg i.v.) and sacrificed by opening the thorax. The thorax aorta is removed, freed from adhering connective tissue, divided into ring segments 1.5 mm wide and individually transferred under an initial loading of about 3.5 g to 10 ml organ baths containing Krebs-Henseleit nutrient solution, aerated with 95% O2 /5% CO2 and temperature-controlled at 37° C., of the following composition: 119 mmol/l of NaCl; 2.5 mmol/l of CaCl2 ×2H2 O; 1.2 mmol/l of KH2 PO4; 10 mmol/l of glucose; 4.8 mmol/l of KCl; 1.4 mmol/l of MgSO4 ×7 H2 O and 25 mmol/l of NaHCO3.
The contractions are determined isometrically by means of Statham UC2 cells via bridge amplifiers (ifd Mulheim or DSM Aalen) and digitalised by means of A/D converters (System 570, Keithley Munich) and assessed. The agonist dose response curves (DRCs) are plotted hourly. With each DRC, 3 or 4 individual concentrations are applied to the baths at a 4 min interval. After the end of the DRC and subsequent washing-out cycles (16 times in each case about 5 sec/min with the abovementioned nutrient solution), a 28-minute resting or incubation phase follows, within which the contractions as a rule reach the starting value again.
The height of the 3rd DRC, in a normal case, is used as a reference quantity for the assessment of the test substance to be investigated in further runs, which substance is applied to the baths in the following DRCs in increasing dose in each case at the start of the incubation period. Each aorta ring is in this case stimulated for the whole day, always with the same agonist.
Agonists and their standard concentrations (administration volume per individual dose=100 μl):
To calculate the IC50 (concentration at which the substance to be investigated causes a 50% inhibition), the effect is in each case based on the 3rd=submaximal agonist concentration.

Q: Which “Inhibition [%] at 10^-6 M” value [1] does the source give for `CCCCc1nc(Cl)c(C=O)n1Cc1ccc(C2CCCCC2C(=O)N[C@H](CO)c2ccccc2)cc1` (single isomer, unassigned) [Example 6] here?
A: Its value is 41%.

Q: With `CCCCc1nc(Cl)c(CO)n1Cc1ccc(C2CCCCC2C(=O)N[C@H](CO)c2ccccc2)cc1` (single isomer, unassigned) [Example 10] as the compound, how does the “Inhibition [%] at 10^-6 M” value [1] read?
A: Its value is 12%.

Q: With `CCCCc1nc(Cl)c(C=O)n1Cc1ccc([C@@H]2CCCC[C@H]2c2nnn[nH]2)cc1` (relative stereo) [Example 16, 5-{trans-2-[4-(2-Butyl-4-chloro-5-formyl-imidazol-1-yl-methyl)-phenyl]-cyclohex-1-yl}-tetrazole] as the compound, how does the Ki (angiotensin II receptor) read?
A: Its Ki is 440 nM.

Q: Which Ki (angiotensin II receptor) does the source give for `CCCCc1nc(Cl)c(C(=O)O)n1Cc1ccc([C@@H]2CCCC[C@H]2C(=O)NS(=O)(=O)c2ccc(C)cc2)cc1` (relative stereo) [Example 13, N-(4-Tolylsulphonyl)-trans-2-[4-(2-butyl-4-chloro-5-carboxy-imidazol-1-yl-methyl)phenyl]-cyclohexane-1-carboxamide] here?
A: Its Ki is 72 nM.

Q: What about the IC50 [2] of the same compound?
A: The IC50 was 240 nM.

Q: `CCCCc1nc(Cl)c(C(=O)O)n1Cc1ccc([C@@H]2CCCC[C@H]2C(=O)O)cc1` (relative stereo) [Example 4] was tested. Which IC50 [2] did it give?
A: The IC50 was 1400 nM.

Q: With `CCCCc1nc(Cl)c(CO)n1Cc1ccc([C@@H]2CCCC[C@H]2C(=O)NS(=O)(=O)c2ccc(C)cc2)cc1` (relative stereo) [Example 9] as the compound, how does the Ki (angiotensin II receptor) read?
A: The Ki was 120 nM.

Q: And the IC50 [2]?
A: Its IC50 is 920 nM.

Q: Which “Inhibition [%] at 10^-6 M” value [1] does the source give for `CCCCc1nc(Cl)c(C=O)n1Cc1ccc(C2CCCCC2C(=O)N[C@H](CO)c2ccccc2)cc1` (single isomer, unassigned) [Example 7] here?
A: Its value is 100%.

Q: For `CCCCc1nc(Cl)c(CO)n1Cc1ccc(C2CCCCC2C(=O)N[C@H](CO)c2ccccc2)cc1` (single isomer, unassigned) [Example 11], which “Inhibition [%] at 10^-6 M” value [1] is on record?
A: The value was 100%.
